Test system: patients with refractory metastatic colorectal cancer (mCRC)
Assay: PFS, OS and disease control in the control cohort of refractory mCRC patients receiving regorafenib (n=52, Italy), by baseline characteristics and SNP genotype
Assay type: in vivo, human
Conditions: control cohort
Experimental: All patients underwent the treatment in salvage-line setting.
(§1) Patients in the control group received 160 mg regorafenib (Bayer, Leverkusen, Germany) once daily from day 1 to 21 every 4 weeks. Doses were adjusted based on haematological and non-haematological adverse events at the treating physician's discretion in accordance with the manufacturer's recommendations. The analyses were approved by the University of Southern California (USC) Institutional Review Board of Medical Sciences and conducted at the USC/Norris Comprehensive Cancer Center in accordance with the Declaration of Helsinki and Good Clinical Practice Guidelines.
(§2) Genomic DNA was extracted from peripheral whole blood in patients of all cohorts using the QIAmp Kit (Qiagen, Valencia, Calif., USA) according to the manufacturer's protocol (www.qiagen.com). The candidate SNPs were genotyped using PCR-based direct DNA sequence analysis by ABI 3100A Capillary Genetic Analyzer and Sequencing Scanner v1.0 (Applied Biosystems). Amplification of extracted DNA was carried out using both forward and reverse primers for each gene polymorphism as shown in Table 1. […] The investigators analyzing SNPs were blinded to the clinical data of the study patients.
The primary endpoint in this study was progression-free survival (PFS), and the secondary endpoints were overall survival (OS) and disease control rate (DCR). PFS was calculated from the date of starting treatment to the first observation of disease progression or death from any cause. If a patient had no disease progression or death, PFS was censored at the date of last follow up. OS was calculated from the date of starting treatment until the date of death from any cause or the date of the last follow-up, at which point OS was censored. The disease control rate (DCR) was defined as the proportion of patients who achieved a stable disease (SD) or […] according to RECISTv1.1. Chi-square test was used to examine the difference in baseline patient characteristics among the three cohorts. Allelic distribution of all SNPs by ethnicity for deviation from Hardy-Weinberg equilibrium and the allelic frequencies of SNPs were tested using the Chi-square tests with one degree of freedom. The associations between candidate SNPs and disease control, and toxicities were examined using contingency tables and Fisher's exact test. The associations of SNPs with PFS and OS were analysed using Kaplan-Meier curves and the log-rank test. Because the true mode of inheritance of candidate SNPs was not established yet, a codominant or dominant genetic model if appropriate was considered.
All patients underwent the treatment in salvage-line setting. […] In all patients, adverse events were graded according to the Common Terminology Criteria for Adverse Events, version 4.0.
as §1, with “events at treating physician's” for “events at the treating physician's”
as §2, with “tested” for “genotyped”, “Biosystems).” for “Biosystems). Amplification of extracted DNA was carried out using both forward and reverse primers for each gene polymorphism as shown in Table 1.”, “data.” for “data of the study patients.”
The primary endpoint in this study was progression-free survival (PFS), and the secondary endpoints were overall survival (OS) and disease control rate (DCR). […]

[1] = Sex Female vs Male (Ref.), univariate
[2] = Tumor site Left vs Right (Ref.), univariate
[3] = XRCC3 rs861539 A/A vs G/G (Ref.), multivariable
[4] = XRCC3 rs861539 A/A vs G/G (Ref.), univariate
[5] = XRCC3 rs861539 Any A vs G/G (Ref.), multivariable
[6] = XRCC3 rs861539 Any A vs G/G (Ref.), univariate
[7] = XRCC3 rs861539 G/A vs G/G (Ref.), multivariable
[8] = XRCC3 rs861539 G/A vs G/G (Ref.), univariate
[9] = MATE1 rs2289669 G/A and A/A combined
[10] = MATE1 rs2289669 G/A and A/A combined vs G/G

Structure (SMILES): CNC(=O)c1cc(Oc2ccc(NC(=O)Nc3ccc(Cl)c(C(F)(F)F)c3)c(F)c2)ccn1 [regorafenib]
- Median OS (Sex Female): 5.5 months
- Median PFS (Sex Female): 2.0 months
- HR OS [1]: 1.18
- HR PFS [1]: 1.02
- Median OS (Sex Male): 5.4 months
- Median PFS (Sex Male): 1.8 months
- Median OS (Tumor site Left): 7.2 months
- Median PFS (Tumor site Left): 2.2 months
- HR OS [2]: 0.82
- HR PFS [2]: 0.80
- Median OS (Tumor site Right): 3.9 months
- Median PFS (Tumor site Right): 1.8 months
- Disease Control CR/PR/SD, patients n (%) (XRCC3 rs861539 A/A): 3 (43%)
- Median OS (95% CI) (XRCC3 rs861539 A/A): 5.4 (2.3, 9.1) months
- Median PFS (95% CI) (XRCC3 rs861539 A/A): 2.7 (1.7, 4.3) months
- PD, patients n (%) (XRCC3 rs861539 A/A): 4 (57%)
- HR OS (95% CI) [3]: 0.54 (0.21, 1.40)
- HR PFS (95% CI) [3]: 0.62 (0.23, 1.65)
- HR OS (95% CI) [4]: 0.34 (0.04, 2.95)
- HR PFS (95% CI) [4]: 0.83 (0.34, 2.06)
- Disease Control CR/PR/SD, patients n (%) (XRCC3 rs861539 Any A): 13 (38%)
- Median OS (95% CI) (XRCC3 rs861539 Any A): 5.9 (3.8, 8.0) months
- Median PFS (95% CI) (XRCC3 rs861539 Any A): 2.0 (1.8, 3.1) months
- PD, patients n (%) (XRCC3 rs861539 Any A): 21 (62%)
- HR OS (95% CI) [5]: 0.71 (0.38, 1.31)
- HR PFS (95% CI) [5]: 0.85 (0.44, 1.63)
- HR OS (95% CI) [6]: 0.72 (0.22, 2.39)
- HR PFS (95% CI) [6]: 0.83 (0.45, 1.53)
- Disease Control CR/PR/SD, patients n (%) (XRCC3 rs861539 G/A): 10 (37%)
- Median OS (95% CI) (XRCC3 rs861539 G/A): 6.8 (3.6, 8.7) months
- Median PFS (95% CI) (XRCC3 rs861539 G/A): 1.9 (1.8, 3.1) months
- PD, patients n (%) (XRCC3 rs861539 G/A): 17 (63%)
- HR OS (95% CI) [7]: 0.76 (0.40, 1.44)
- HR PFS (95% CI) [7]: 0.92 (0.47, 1.79)
- HR OS (95% CI) [8]: 0.86 (0.25, 2.96)
- HR PFS (95% CI) [8]: 0.83 (0.44, 1.56)
- Disease Control CR/PR/SD, patients n (%) (XRCC3 rs861539 G/G): 4 (27%)
- Median OS (95% CI) (XRCC3 rs861539 G/G): 4.1 (1.7, 6.0) months
- Median PFS (95% CI) (XRCC3 rs861539 G/G): 1.7 (1.0, 2.2) months
- PD, patients n (%) (XRCC3 rs861539 G/G): 11 (73%)
- Disease Control Rate PD (MATE1 rs2289669 A/A): 5 (50%)
- Disease Control Rate SD (MATE1 rs2289669 A/A): 3 (50%)
- Disease Control Rate SD (MATE1 rs2289669 G/A): 7 (27%)
- PD, patients n (%) (MATE1 rs2289669 G/A): 19 (73%)
- Overall Survival Median, months (95% CI) [9]: 5.3 (3.7, 8.0) months
- Progression-free Survival Median, months (95% CI) [9]: 1.8 (1.7, 2.8) months
- Overall Survival HR (95% CI) multivariate [10]: 0.99 (0.52, 1.91)
- Overall Survival HR (95% CI) univariate [10]: 0.85 (0.50, 1.57)
- Progression-free Survival HR (95% CI) multivariate [10]: 0.86 (0.43, 1.70)
- Progression-free Survival HR (95% CI) univariate [10]: 0.65 (0.48, 1.52)
- Disease Control Rate PD (MATE1 rs2289669 G/G): 10 (59%)
- Disease Control Rate SD (MATE1 rs2289669 G/G): 7 (41%)
- Overall Survival Median, months (95% CI) (MATE1 rs2289669 G/G): 5.7 (2.2, 7.8) months
- Progression-free Survival Median, months (95% CI) (MATE1 rs2289669 G/G): 2.1 (1.5, 3.1) months
- Overall Survival HR (95% CI) univariate (OCT2 rs316000): 0.95 (0.50, 1.83)
- Progression-free Survival HR (95% CI) univariate (OCT2 rs316000): 0.95 (0.50, 1.83)
- Disease Control Rate PD (OCT2 rs316019 A/A): 1 (100%)
- Disease Control Rate SD (OCT2 rs316019 A/A): 0
- Disease Control Rate PD (OCT2 rs316019 C/A): 6 (86%)

— patent publication US20190233884A1 (University of Southern California, priority 2016, published 2019)
